Experiments:
Format in all cases: functional
Details in all cases: read-out: Activity
[1] = tested on: MDA-MB-468; test: Cytotoxicity against human MDA-MB-468 cells assessed as cell viability at 10 uM incubated for 48 hrs by sulforhodamine B assay relative to control
[2] = tested on: T47D; test: Cytotoxicity against human T47D cells assessed as cell viability at 10 uM incubated for 48 hrs by sulforhodamine B assay relative to control
[3] = tested on: MDA-MB-231; test: Cytotoxicity against human MDA-MB-231 cells assessed as cell viability at 10 uM incubated for 48 hrs by sulforhodamine B assay relative to control
[4] = tested on: MCF7; test: Cytotoxicity against human MCF7 cells assessed as cell viability at 10 uM incubated for 48 hrs by sulforhodamine B assay relative to control
[5] = tested on: DU-145; test: Cytotoxicity against human DU-145 cells assessed as cell viability at 10 uM incubated for 48 hrs by sulforhodamine B assay relative to control
[6] = tested on: UO-31; test: Cytotoxicity against human UO-31 cells assessed as cell viability at 10 uM incubated for 48 hrs by sulforhodamine B assay relative to control
[7] = tested on: SN12C; test: Cytotoxicity against human SN12C cells assessed as cell viability at 10 uM incubated for 48 hrs by sulforhodamine B assay relative to control
[8] = tested on: CAKI-1; test: Cytotoxicity against human CAKI-1 cells assessed as cell viability at 10 uM incubated for 48 hrs by sulforhodamine B assay relative to control
[9] = tested on: ACHN; test: Cytotoxicity against human ACHN cells assessed as cell viability at 10 uM incubated for 48 hrs by sulforhodamine B assay relative to control
[10] = tested on: SK-OV-3; test: Cytotoxicity against human SK-OV-3 cells assessed as cell viability at 10 uM incubated for 48 hrs by sulforhodamine B assay relative to control
[11] = tested on: IGROV-1; test: Cytotoxicity against human IGROV-1 cells assessed as cell viability at 10 uM incubated for 48 hrs by sulforhodamine B assay relative to control
[12] = tested on: UACC-62; test: Cytotoxicity against human UACC-62 cells assessed as cell viability at 10 uM incubated for 48 hrs by sulforhodamine B assay relative to control
[13] = tested on: UACC-257; test: Cytotoxicity against human UACC-257 cells assessed as cell viability at 10 uM incubated for 48 hrs by sulforhodamine B assay relative to control
[14] = tested on: SK-MEL-5; test: Cytotoxicity against human SK-MEL-5 cells assessed as cell viability at 10 uM incubated for 48 hrs by sulforhodamine B assay relative to control
[15] = tested on: SK-MEL-28; test: Cytotoxicity against human SK-MEL-28 cells assessed as cell viability at 10 uM incubated for 48 hrs by sulforhodamine B assay relative to control
[16] = tested on: SK-MEL-2; test: Cytotoxicity against human SK-MEL-2 cells assessed as cell viability at 10 uM incubated for 48 hrs by sulforhodamine B assay relative to control
[17] = tested on: CCRF-CEM; test: Cytotoxicity against human CCRF-CEM cells assessed as cell viability at 10 uM incubated for 48 hrs by sulforhodamine B assay relative to control
[18] = tested on: K562; test: Cytotoxicity against human K562 cells assessed as cell viability at 10 uM incubated for 48 hrs by sulforhodamine B assay relative to control
[19] = tested on: MOLT-4; test: Cytotoxicity against human MOLT-4 cells assessed as cell viability at 10 uM incubated for 48 hrs by sulforhodamine B assay relative to control
[20] = tested on: RPMI-8226; test: Cytotoxicity against human RPMI-8226 cells assessed as cell viability at 10 uM incubated for 48 hrs by sulforhodamine B assay relative to control
[21] = tested on: SR; test: Cytotoxicity against human SR cells assessed as cell viability at 10 uM incubated for 48 hrs by sulforhodamine B assay relative to control
[22] = tested on: A549; test: Cytotoxicity against human A549 cells assessed as cell viability at 10 uM incubated for 48 hrs by sulforhodamine B assay relative to control
[23] = tested on: EKVX; test: Cytotoxicity against human EKVX cells assessed as cell viability at 10 uM incubated for 48 hrs by sulforhodamine B assay relative to control
[24] = tested on: HOP-62; test: Cytotoxicity against human HOP-62 cells assessed as cell viability at 10 uM incubated for 48 hrs by sulforhodamine B assay relative to control
[25] = tested on: HOP-92; test: Cytotoxicity against human HOP-92 cells assessed as cell viability at 10 uM incubated for 48 hrs by sulforhodamine B assay relative to control
[26] = tested on: NCI-H226; test: Cytotoxicity against human NCI-H226 cells assessed as cell viability at 10 uM incubated for 48 hrs by sulforhodamine B assay relative to control
[27] = tested on: NCI-H23; test: Cytotoxicity against human NCI-H23 cells assessed as cell viability at 10 uM incubated for 48 hrs by sulforhodamine B assay relative to control
[28] = tested on: NCI-H322M; test: Cytotoxicity against human NCI-H322M cells assessed as cell viability at 10 uM incubated for 48 hrs by sulforhodamine B assay relative to control
[29] = tested on: NCI-H460; test: Cytotoxicity against human NCI-H460 cells assessed as cell viability at 10 uM incubated for 48 hrs by sulforhodamine B assay relative to control
[30] = tested on: NCI-H522; test: Cytotoxicity against human NCI-H522 cells assessed as cell viability at 10 uM incubated for 48 hrs by sulforhodamine B assay relative to control
[31] = tested on: COLO 205; test: Cytotoxicity against human COLO 205 cells assessed as cell viability at 10 uM incubated for 48 hrs by sulforhodamine B assay relative to control
[32] = tested on: HCC 2998; test: Cytotoxicity against human HCC 2998 cells assessed as cell viability at 10 uM incubated for 48 hrs by sulforhodamine B assay relative to control
[33] = tested on: HCT-116; test: Cytotoxicity against human HCT-116 cells assessed as cell viability at 10 uM incubated for 48 hrs by sulforhodamine B assay relative to control
[34] = tested on: HCT-15; test: Cytotoxicity against human HCT-15 cells assessed as cell viability at 10 uM incubated for 48 hrs by sulforhodamine B assay relative to control
[35] = tested on: HCT-29; test: Cytotoxicity against human […] cells assessed as cell viability at 10 uM incubated for 48 hrs by sulforhodamine B assay relative to control
[36] = tested on: KM12; test: Cytotoxicity against human KM12 cells assessed as cell viability at 10 uM incubated for 48 hrs by sulforhodamine B assay relative to control
[37] = tested on: SW-620; test: Cytotoxicity against human SW-620 cells assessed as cell viability at 10 uM incubated for 48 hrs by sulforhodamine B assay relative to control
[38] = tested on: SF-268; test: Cytotoxicity against human SF-268 cells assessed as cell viability at 10 uM incubated for 48 hrs by sulforhodamine B assay relative to control
[39] = tested on: SNB-19; test: Cytotoxicity against human SNB-19 cells assessed as cell viability at 10 uM incubated for 48 hrs by sulforhodamine B assay relative to control
[40] = tested on: SNB-75; test: Cytotoxicity against human SNB-75 cells assessed as cell viability at 10 uM incubated for 48 hrs by sulforhodamine B assay relative to control
[41] = tested on: LOX IMVI; test: Cytotoxicity against human LOX IMVI cells assessed as cell viability at 10 uM incubated for 48 hrs by sulforhodamine B assay relative to control

Compound: O=S(=O)(NCCNc1nccc(-c2c(-c3cccc(F)c3)nc3sccn23)n1)c1ccc(C(F)(F)F)cc1
- viability at 10 µM [1]: 71.3%
- viability at 10 µM [2]: 62.5%
- viability at 10 µM [3]: 92.8%
- viability at 10 µM [4]: 59.3%
- viability at 10 µM [5]: 89.2%
- viability at 10 µM [6]: 51.7%
- viability at 10 µM [7]: 89.7%
- viability at 10 µM [8]: 70.6%
- viability at 10 µM [9]: 82.2%
- viability at 10 µM [10]: 71.8%
- viability at 10 µM [11]: 56.6%
- viability at 10 µM [12]: 73.3%
- viability at 10 µM [13]: 109%
- viability at 10 µM [14]: 84%
- viability at 10 µM [15]: 114%
- viability at 10 µM [16]: 98.8%
- viability at 10 µM [17]: 80.6%
- viability at 10 µM [18]: 73.1%
- viability at 10 µM [19]: 57.5%
- viability at 10 µM [20]: 83.8%
- viability at 10 µM [21]: 89.4%
- viability at 10 µM [22]: 72.4%
- viability at 10 µM [23]: 86.5%
- viability at 10 µM [24]: 102%
- viability at 10 µM [25]: 64%
- viability at 10 µM [26]: 82.8%
- viability at 10 µM [27]: 86.8%
- viability at 10 µM [28]: 96.5%
- viability at 10 µM [29]: 94.7%
- viability at 10 µM [30]: 85%
- viability at 10 µM [31]: 68.3%
- viability at 10 µM [32]: 111%
- viability at 10 µM [33]: 67.8%
- viability at 10 µM [34]: 72.6%
- viability at 10 µM [35]: 62.8%
- viability at 10 µM [36]: 80.6%
- viability at 10 µM [37]: 110%
- viability at 10 µM [38]: 77.8%
- viability at 10 µM [39]: 94.8%
- viability at 10 µM [40]: 85%
- viability at 10 µM [41]: 88.9%

Compound: O=S(=O)(NCCCNc1nccc(-c2c(-c3cccc(F)c3)nc3sccn23)n1)c1ccc(C(F)(F)F)cc1
- viability at 10 µM [1]: 102%
- viability at 10 µM [2]: 56%
- viability at 10 µM [3]: 96.5%
- viability at 10 µM [4]: 82.1%
- viability at 10 µM [5]: 94.7%
- viability at 10 µM [6]: 57.9%
- viability at 10 µM [7]: 89%
- viability at 10 µM [8]: 67.9%
- viability at 10 µM [9]: 87.8%
- viability at 10 µM [10]: 77.7%
- viability at 10 µM [11]: 66.2%
- viability at 10 µM [12]: 80.4%
- viability at 10 µM [13]: 110%
- viability at 10 µM [14]: 91.1%
- viability at 10 µM [15]: 116%
- viability at 10 µM [16]: 89.9%
- viability at 10 µM [17]: 89.4%
- viability at 10 µM [18]: 69.8%
- viability at 10 µM [19]: 62%
- viability at 10 µM [20]: 87.4%
- viability at 10 µM [21]: 109%
- viability at 10 µM [22]: 83.5%
- viability at 10 µM [23]: 87.3%
- viability at 10 µM [24]: 104%
- viability at 10 µM [25]: 94.8%
- viability at 10 µM [26]: 77.5%
- viability at 10 µM [27]: 90%
- viability at 10 µM [28]: 104%
- viability at 10 µM [29]: 98.7%
- viability at 10 µM [30]: 85.5%
- viability at 10 µM [31]: 91%
- viability at 10 µM [32]: 125%
- viability at 10 µM [33]: 86.2%
- viability at 10 µM [34]: 78.8%
- viability at 10 µM [35]: 80.1%
- viability at 10 µM [36]: 88.5%
- viability at 10 µM [37]: 115%
- viability at 10 µM [38]: 75.6%
- viability at 10 µM [39]: 96.1%
- viability at 10 µM [40]: 86.4%
- viability at 10 µM [41]: 86.7%

From ChEMBL document CHEMBL4665642, “Anticancer profile of newly synthesized BRAF inhibitors possess 5-(pyrimidin-4-yl)imidazo[2,1-b]thiazole scaffold” (Bioorg Med Chem, 2019)
